{"source": "paper PMC8333425", "about": "“Discovery of a dual Ras and ARF6 inhibitor from a GPCR endocytosis screen” (Nature Communications, 2021)", "key": {"ARF6": {"biological_target": "T1, ARF6 (Homo sapiens, UniProt P62330)", "T1 construct": "expressed in transfected cells; host or cells: HEK293SL", "test": "GST-GGA3-PBD pull-down of EGFR-mediated ARF6 activation in MDA-MB-231 cells", "format": "cell-based", "conditions": "50 μM", "experimental": "Activation of ARF1, ARF6, Ras, and Rho were assessed by using GST pull-down assays. HEK293SL cells were transiently transfected with 3 µg AT1R-flag only (Ras and Rho) or along with 500 ng HA-ARF6 (ARF6) or HA-ARF1 (ARF1). Forty-eight hours later, the HEK293 or MDA-MB-231 cells were serum-starved for 4 h with DMEM containing 20 mM HEPES then pretreated with DMSO or Rasarfin (50 µM) for 30 min. Cells were then stimulated with 1 µM AngII or 100 ng/ml EGF for 0 and 2 min. Cells were then washed once with ice-cold PBS and lysed for 30 min at 4 °C in 300 µl of lysis buffer (pH 7.5, 50 mM Tris-HCl, 140 mM NaCl, 5 mM MgCl2, 10% glycerol (v/v), 1% Nonidet P-40 (v/v), 1 mM dithiothreitol) supplemented with protease inhibitors (1 mM phenylmethyl-sulfonyl fluoride (PMSF), 10 µg/ml leupeptin, 5 µg/ml aprotinin, 1 µg/ml pepstatin A) and phosphatase inhibitors (20 mM NaF, 0.025 mM pervanadate). The samples were cleared by centrifugation and 30 µl (cell lysates) was kept for assessing total protein contents. The remaining was transferred to fresh tubes with 20 µg of either GST, GST-GGA3-PBD, GST-Raf1-RBD or GST-Rhotekin-RBD coupled to glutathione resin and rotated for 1–2 h at 4 °C. […] ImageLab 5.2 software was used to quantify the digital blots as fold of the amount of pulled down protein over total protein. […]"}, "K-Ras": {"biological_target": "K-Ras (Homo sapiens, UniProt P01116)", "sequence (P01116 1-188 isoform P01116-2)": "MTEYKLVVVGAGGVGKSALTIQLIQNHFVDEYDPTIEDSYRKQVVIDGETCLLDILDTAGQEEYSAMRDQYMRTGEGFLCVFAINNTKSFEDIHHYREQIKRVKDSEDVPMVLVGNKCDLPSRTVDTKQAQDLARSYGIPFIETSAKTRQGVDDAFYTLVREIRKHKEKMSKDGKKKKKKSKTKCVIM", "test": "Ras BRET sensor in cells overexpressing WT K-Ras and AT1R", "format": "cell-based", "set-up": "expressed in transfected cells; host or cells: HEK293SL", "description": "Because Tyr32 and Tyr40, located on the switch I domain of Ras, are critical for stabilizing Rasarfin binding through interactions with both the chlorine and isopropyl moiety (Fig. 7a, c), we reasoned that substituting them for Ala residues would negatively impact Rasarfin’s inhibitory action on Ras. […] Because we wanted to assess the inhibitory action of Rasarfin over different Ras subtypes, we mutated the two tyrosine residues to an alanine in K-Ras (Y32A, Y40A, and Y32A/Y40A mutants) within the same Rasarfin binding site found in H-Ras (Lys^5-Thr^74). This domain and residues are perfectly conserved among the Ras family members[44],[45]. WT K-Ras and K-Ras mutants were overexpressed along with AT1R in cells and AngII-mediated activation of Ras was assessed using the Ras BRET sensor (Supplementary Fig. 11a).\nHEK293SL cells were seeded at a density of 7.5 × 10^5 cells per 100-mm dish and 24 h later, transiently transfected as such. For receptor internalization experiments, cells were transfected with 0.12 μg AT1R-RlucII, B2R-RlucII, or β2AR-RlucII and 0.48 μg of either rGFP-CAAX (to assess removal from the PM) or rGFP-FYVE (to assess accumulation in the endosomes). For β-arrestin recruitment assays, cells were transfected with 0.48 μg of receptor-YFP along with 0.12 μg of β-arrestin-RlucII. […] For kinetics of β-arrestin recruitment or β-arrestin binding to receptor and AP-2 experiments, cells were serum starved for 30 min, pretreated with 21 (50 µM) or Barbadin (100 µM) for 30 min, stimulated with 100 nM AngII or 1 µM BK and BRET signals were monitored at indicated times using a Victor X Light plate reader (PerkinElmer). […] The BRET ratio was determined by calculating the ratio of the light emitted by YFP over the light emitted by the RlucII. […] For the kinetics of GTPase and PI3K/Akt activation, cells were serum starved, pretreated with 21 (50 µM) or Wortmannin (200 nM) for 30 min, stimulated with ligand (100 nM AngII or 100 ng/ml EGF) and BRET signals were monitored at indicated times. […]"}}, "note": "Values joined by “and” are separate entries in the source; they are usually repeats but may differ in a detail not shown here. Equal values may be shown once.", "data": [{"compound": "CC(C)C(=O)N1CCN(c2ccc(NC(=O)c3cc4ccccc4o3)cc2Cl)CC1", "note": "[Compound 21]", "values": [{"measurement": "ARF6 activity in MDA-MB-231 cells (pull-down)", "setting": "ARF6", "result": "inhibited"}, {"measurement": "AngII-mediated activation of WT K-Ras (Ras BRET sensor)", "setting": "K-Ras; 50 μM", "result": "only WT was significantly inhibited by Rasarfin"}, {"measurement": "AngII-promoted BRET", "setting": "K-Ras; Rasarfin 50 μM, K-Ras WT", "result": "0.0405 and 0.05833 and 0.04947 and 0.058"}, {"measurement": "AngII-promoted BRET, Mean Diff. DMSO - Rasarfin", "setting": "K-Ras; Rasarfin 50 μM, K-Ras WT, Bonferroni's multiple comparisons test", "result": 0.04859}]}]}
